Measurements taken from US20230320995A1, “IONIZABLE CATIONIC LIPIDS AND LIPID NANOPARTICLES” (CAPSTAN THERAPEUTICS, INC., priority 2022, published 2023).

Legend:
[1] = physical-chemical properties of CD5-targeted tLNP encapsulating mCherry mRNA; assay type: physicochemical; conditions: for Hydrodynamic diameter: anti-CD5 tLNP: ionizable lipid/DSPC/cholesterol/DMG-PEG 2000/DSPE-PEG2000-Maleimide 50:10:38.5:1.4:0.1
Excerpt: CleanCap® mCherry 5-methoxyuridine (5moU) mRNA (L-7203) was purchased from TriLink. mRNA was encapsulated in LNP using a self-assembly process in which an aqueous solution of mRNA at pH=3.5 is rapidly mixed with a solution of lipids dissolved in ethanol, then followed by stepwise phosphate and Tris buffer dilution and TFF purification. LNP composition in this study was: ionizable cationic lipid/distearoylphosphatidylcholine/cholesterol/DMG-PEG 2000/distearoylphosphatidyl ethanolamine(DSPE)-PEG2000-Maleimide (50:10:38.5:1.4:0.1 mol/mol) and were encapsulated at an N/P ratio (the ratio of positively-chargeable […] amine (N=nitrogen) groups to negatively-charged nucleic acid phosphate (P) groups) at 6. The hydrodynamic diameter of the nanoparticles was measured by dynamic light scattering using a Zetasizer Nano ZS (Malvern Instruments Ltd., Malvern, UK) instrument.
Next, an anti-CD5 mAb was conjugated to the above LNP to generate tLNP. Purified rat anti-mouse CD5 antibody, clone 53-7.3 (BioLegend), was coupled to LNP via N-succinimidyl S-acetylthioacetate (SATA)-maleimide conjugation chemistry. Briefly, LNPs with DSPE-PEG(2000)-maleimide incorporated were formulated and stored at 4° C. on the day of conjugation. The antibody was modified with SATA (Sigma-Aldrich) to introduce sulfhydryl groups at accessible lysine residues allowing conjugation to maleimide. SATA was deprotected using 0.5 M hydroxylamine followed by removal of the unreacted components by G-25 Sephadex Quick Spin Protein columns (Roche Applied Science, Indianapolis, IN). The reactive sulfhydryl group on the antibody was then conjugated to maleimide moieties on the LNPs using thioether conjugation chemistry. Purification was performed using Sepharose CL-4B gel filtration columns (Sigma-Aldrich). tLNPs (LNPs conjugated with a targeting antibody) were frozen at −80° C. Others have conjugated antibody to free functionalized PEG-lipid and then incorporated the conjugated lipid into pre-formed LNP.
mRNA content was determined using a Quant-iT™ RiboGreen RNA assay kit (Invitrogen™). Encapsulation efficiency was calculated by determining the unencapsulated mRNA content by measuring the fluorescence intensity (Fi) upon the addition of RiboGreen reagent to the LNP and comparing this value to the total fluorescence intensity (Ft) of the RNA content that is obtained upon lysis of the LNPs by 1% Triton X-100, where % encapsulation=(Ft−Fi)/Ft x 100).
The particle size (hydrodynamic diameter) and polydispersity index of the targeted lipid nanoparticles were determined using dynamic light scattering (DLS) on a Malvern Zetasizer Nano ZS (Malvern Instruments, Worcestershire, UK). Size measurement was carried out in pH 7.4 Tris buffer at 25° C. in relevant disposable capillary cells. A non-invasive back scatter system (NIBS) with a scattering angle of 173° was used for size measurements.

mouse splenic T cells = experiment: targeted transfection of T cells in vivo with CD5-targeted tLNP; conditions: C57Bl/6 mice, 10 μg via tail vein, spleen at 24 hours
Experimental: To assess the performance of tLNP described in Example 35 they were used to transfect mouse T cells by injecting the tLNP into live mice and evaluated for their ability to generate murine T cells that express the mCherry reporter gene in vivo. All tLNP test articles were thawed at room temperature for 30 minutes and then diluted 1:2 with sterile water for injection to achieve a final dose concentration of 100 μg/mL. 100 μL (10 μg) of each test article was then injected via the tail vein into 8-week-old female C57Bl/6 mice. All treated mice were then sacrificed at 24 hours post-treatment and their spleens collected. Each spleen was then dissociated to single cell suspension and stained with antibodies to identify T cells, B cells, monocytes and non-hematopoietic cells. Stained samples were then analyzed by flow cytometry for expression of mCherry in immune cell subsets, and non-hematopoietic cells. Data analysis was performed using FlowJo (Version 10.8.1) and GraphPad Prism (9.4.1.).

HEK293F cells = experiment: transfection of HEK293F cells with mCherry mRNA LNP; assay type: cell-based; conditions: highest dose tested (2 μg RNA per well), 24 hours
Experimental: The ability of the LNP formed in the preceding Example to transfect HEK293F cells, a human embryonic kidney cell-derived cell line, with the mCherry mRNA was assessed. Viral Production Cells (Gibco Catalog number: A35347), a derivative of the HEK 293F cell line adapted to a chemically-defined, serum-free and protein-free medium (LV-MAX™ Production Medium; Gibco Catalog number: A3583401) were grown in suspension, sedimented, resuspended at about 1×10^6 cells/mL, and 200 μL distributed to the wells of a 96-well U-bottom plate. Frozen LNP were thawed and diluted to 100 μg mRNA/mL with sterile water for injection. An appropriate volume of LNP was added to provide 0, 0.3, 0.6, or 2 μg RNA per well in duplicate and mixed by re-pipetting. The cells were then incubated for 1 hour at 37° C. in a CO2 incubator, washed three times with phosphate buffered saline, resuspended in 400 μL of medium in a deep-well 96-well plate, and incubated at 37° C. in a CO2 incubator on an orbital shaker at 900 RPM.
Twenty-four hours after addition of the LNP to the cells they were stained with Aqua Live/Dead (Thermo: catalog L34965) to assess cell viability. Transfection rate and expression level in the transfected cells was assessed by flow cytometry based on mCherry fluorescence.

| Compound | Hydrodynamic diameter ([1]; DLS) | PDI (polydispersity index) ([1]; anti-CD5 tLNP, DLS) | Encapsulation Efficiency ([1]; anti-CD5 tLNP, RiboGreen assay) | level of mCherry expression (MFI) in vivo (mouse splenic T cells) | transfection rate of splenic T cells in vivo (mouse splenic T cells) | transfection rate (HEK293F cells) |
| --- | --- | --- | --- | --- | --- | --- |
| CCCCCCCCCC(=O)OCC(COC(=O)CCCCCCCCC)CC(=O)OCCN(CCOC(=O)CC(COC(=O)CCCCCCCCC)COC(=O)CCCCCCCCC)C(=O)NCCCN(C)C [Compound A-2] | 105 nm | 0.20 | 99% |  |  |  |
| CCCCCCCCC(=O)OCC(COC(=O)CCCCCCCC)CC(=O)OCCN(CCOC(=O)CC(COC(=O)CCCCCCCC)COC(=O)CCCCCCCC)C(=O)OCCN(C)C [Compound A-11] | 93 nm |  |  | distinctly greater than that achieved with the other tLNP | around 7% | ~50% |
